# Measured values from patent US9211310B2, “Use of a Chinese medicine composition in preparing medicaments for treating secondary prevention of myocardial infarction” (TASLY PHARMACEUTICAL GROUP CO., LTD, priority 2010, dated 2015).
# Tested on: patients after acute myocardial infarction
# Assay: Life quality, Seattle Angina Questionnaire (SAQ), same clinical trial
# Format: in vivo, human
# Conditions: FAS
# Source text: 3508 patients who were in accordance with the diagnostic standards of AMI for 28 days to 2 years and differentiated as Qi deficiency and blood stagnation syndrome by TCM were studied. 0.5 g Chinese medicine composition prepared by the method of EXAMPLE 1 (Coded as QSYQ) was administrated half an hour after meal, 3 times per day.
# There were 19 questions in the Seattle angina questionnaire (SAQ), including 5 parts: physical limitation (PL), anginal stability (AS), anginal frequency (AF), treatment satisfaction (TS) and disease perception (DP). After being given necessary explanation by doctors, the questions were answered independently by patients.
# They included the overall survival time, angina pectoris score, TCM symptom score and life quality score, where angina pectoris score, TCM symptom score and life quality score were evaluated at randomization, in 1st, 3rd, 6th, 9th, 12th month after treatment and 18th month after follow-up.
# All evaluation results of SAQ were described during the period of observation, and Wilcoxon rank sum test was used for inter-group comparison.
# The evaluation results in the SAQ were depicted in different observations, and inter-group comparison was tested by Wilcoxon Rank-sum test.
smiles,measurement,setting,value
"CC(=O)Oc1ccccc1C(=O)O [Control group, aspirine]","SAQ Question 1-2 Moderately limited, number of patients",1 month after treatment,14
same,"SAQ Question 1-2 Moderately limited, percent of patients",1 month after treatment,(0.80%)
same,"SAQ Question 1-2 Not limited, number of patients",1 month after treatment,1575
same,"SAQ Question 1-2 Not limited, percent of patients",1 month after treatment,(90.36%)
same,"SAQ Question 1-2 Other reasons, number of patients",1 month after treatment,6
same,"SAQ Question 1-2 Other reasons, percent of patients",1 month after treatment,(0.34%)
same,"SAQ Question 1-2 Severely limited, number of patients",1 month after treatment,0
same,"SAQ Question 1-2 Severely limited, percent of patients",1 month after treatment,(0.00%)
same,"SAQ Question 1-2 Slightly limited, percent of patients",1 month after treatment,(6.66%)
same,"SAQ Question 1-6: Mildly limited, patients (%)",1 month after treatment,(18.54%)
same,"SAQ Question 1-6: Moderately limited, patients (%)",1 month after treatment,(14.85%)
same,"SAQ Question 1-6: Not limited, patients (%)",1 month after treatment,(29.59%)
same,"SAQ Question 1-6: Other reasons, patients (%)",1 month after treatment,(0.81%)
same,"SAQ Question 1-6: Severely limited, patients (%)",1 month after treatment,(5.18%)
same,"SAQ Question 1-6: Slightly limited, patients (%)",1 month after treatment,(31.03%)
same,"SAQ Question 1-7: Mildly limited, patients (%)",1 month after treatment,(23.73%)
same,"SAQ Question 1-7: Moderately limited, patients (%)",1 month after treatment,(17.45%)
same,"SAQ Question 1-7: Not limited, patients (%)",1 month after treatment,(12.86%)
same,"SAQ Question 1-7: Other reasons, patients (%)",1 month after treatment,(2.85%)
same,"SAQ Question 1-7: Severely limited, patients (%)",1 month after treatment,(17.68%)
same,"SAQ Question 1-7: Slightly limited, patients (%)",1 month after treatment,(25.42%)
same,"SAQ Question 1-8: Mildly limited, patients (%)",1 month after treatment,(24.13%)
same,"SAQ Question 1-8: Moderately limited, patients (%)",1 month after treatment,(20.52%)
same,"SAQ Question 1-8: Not limited, patients (%)",1 month after treatment,(9.01%)
same,"SAQ Question 1-8: Other reasons, patients (%)",1 month after treatment,(2.79%)
same,"SAQ Question 1-8: Severely limited, patients (%)",1 month after treatment,(22.27%)
same,"SAQ Question 1-8: Slightly limited, patients (%)",1 month after treatment,(21.28%)
same,"8th question: Dissatisfied, patients (%)",3 months after treatment,(0.17%)
same,"8th question: Highly satisfied, patients (%)",3 months after treatment,(19.09%)
same,"8th question: Mostly dissatisfied, patients (%)",3 months after treatment,(3.10%)
same,"8th question: Mostly satisfied, patients (%)",3 months after treatment,(52.81%)
same,"8th question: Partly satisfied, patients (%)",3 months after treatment,(24.83%)
same,"9th question: Few, patients (%)",3 months after treatment,(31.88%)
same,"9th question: Mild, patients (%)",3 months after treatment,(33.54%)
same,"9th question: Moderate, patients (%)",3 months after treatment,(15.60%)
same,"9th question: Severe, patients (%)",3 months after treatment,(1.49%)
same,"9th question: Uneffective, patients (%)",3 months after treatment,(17.49%)
same,"10th question: Dissatisfied, patients (%)",3 months after treatment,(21.33%)
same,"10th question: Highly satisfied, patients (%)",3 months after treatment,(4.70%)
same,"10th question: Mostly dissatisfied, patients (%)",3 months after treatment,(22.19%)
same,"10th question: Mostly satisfied, patients (%)",3 months after treatment,(24.20%)
same,"10th question: Partly satisfied, patients (%)",3 months after treatment,(27.58%)
same,"11th question: Continuously worried, patients (%)",3 months after treatment,(5.39%)
same,"11th question: No worried, patients (%)",3 months after treatment,(4.87%)
same,"11th question: Occasionally worried, patients (%)",3 months after treatment,(40.94%)
same,"11th question: Often worried, patients (%)",3 months after treatment,(18.29%)
same,"11th question: Seldom worried, patients (%)",3 months after treatment,(30.50%)
same,"SAQ 4th question, 1-2 times per week: % of patients",3 months after treatment,(16.69%)
same,"SAQ 4th question, 1-2 times per week: number of patients",3 months after treatment,291
same,"SAQ 4th question, 1-3 times per day: % of patients",3 months after treatment,(5.56%)
same,"SAQ 4th question, 1-3 times per day: number of patients",3 months after treatment,97
same,"SAQ 4th question, <1 time per week: % of patients",3 months after treatment,(11.47%)
same,"SAQ 4th question, <1 time per week: number of patients",3 months after treatment,200
same,"SAQ 4th question, Not used: % of patients",3 months after treatment,(55.50%)
same,"SAQ 4th question, Not used: number of patients",3 months after treatment,968
same,"SAQ 4th question, ≧3 times per week: % of patients",3 months after treatment,(10.72%)
same,"SAQ 4th question, ≧3 times per week: number of patients",3 months after treatment,187
same,"SAQ 4th question, ≧4 times per day: % of patients",3 months after treatment,(0.06%)
same,"SAQ 4th question, ≧4 times per day: number of patients",3 months after treatment,1
same,"SAQ 5th question, Few: % of patients",3 months after treatment,(24.60%)
same,"SAQ 5th question, Few: number of patients",3 months after treatment,429
same,"SAQ 5th question, Mild: % of patients",3 months after treatment,(26.26%)
same,"SAQ 5th question, Mild: number of patients",3 months after treatment,458
same,"SAQ 5th question, Moderate: % of patients",3 months after treatment,(15.65%)
same,"SAQ 5th question, Moderate: number of patients",3 months after treatment,273
same,"SAQ 5th question, None: % of patients",3 months after treatment,(27.41%)
same,"SAQ 5th question, None: number of patients",3 months after treatment,478
same,"SAQ 5th question, Not medicated by doctors: % of patients",3 months after treatment,(4.36%)
same,"SAQ 5th question, Not medicated by doctors: number of patients",3 months after treatment,76
same,"SAQ 5th question, Severe: % of patients",3 months after treatment,(1.72%)
same,"SAQ 5th question, Severe: number of patients",3 months after treatment,30
same,"SAQ 6th question, Dissatisfied: % of patients",3 months after treatment,(0.23%)
same,"SAQ 6th question, Dissatisfied: number of patients",3 months after treatment,4
same,"SAQ 6th question, Highly satisfied: % of patients",3 months after treatment,(19.61%)
same,"SAQ 6th question, Highly satisfied: number of patients",3 months after treatment,342
same,"SAQ 6th question, Mostly dissatisfied: % of patients",3 months after treatment,(2.64%)
same,"SAQ 6th question, Mostly dissatisfied: number of patients",3 months after treatment,46
